Experimental data reported in PMC8879702, “Discovery of Small Molecule Activators of Chemokine Receptor CXCR4 That Improve Diabetic Wound Healing” (International Journal of Molecular Sciences, 2022).

Columns and labels:
[1] = tested on: miR-29a; assay: miR-29a expression in human diabetic fibroblasts (real time qPCR); type: cell-based; conditions: 24 h
Procedure: An additional secondary screen was performed to further validate the activity of UCUF-728 as a selective CXCR4 receptor modulator. Human diabetic and non-diabetic fibroblasts were cultured with increasing concentrations of the compound. The cells were incubated for 24 h and then total cellular RNA was isolated to examine the ability of the compound to correct the abnormal expression of miR-15b, and miR-29a. We have shown that human diabetic skin has an increased miR-15b expression at the baseline compared to non-diabetic skin [7].
CEM-CCRF cells (ATCC CCL-119) were cultured in growth media consisting of RPMI 1640 (Corning; Corning NY, USA) supplemented with 10% Fetal Bovine Serum (Corning; Corning, NY, USA), and 100 IU penicillin, […] streptomycin sulfate (Corning; Corning, NY, USA). Cells were maintained in suspension and subcultured twice weekly to maintain cell densities between 0.8 × 10^6 cells/mL and 2.5 × 10^6 cells/mL to maintain exponential growth phase. […]
Total RNA was extracted with TRIzol reagent (Invitrogen, Carlsbad, CA, USA) according to the manufacturer’s established protocol. […] Quantitative PCR was performed on a BIO-RAD CFX96 according to the manufacturer’s instructions. Quantitative values of genes of interest are normalized based on U6. […]

[2] = tested on: diabetic wounds in Db mice; assay: full-thickness excisional 8 mm wound healing in diabetic Db mice; type: in vivo
Procedure: We examined the ability of our lead compound to improve diabetic wound healing in vivo. Full-thickness excisional 8 mm wounds were created in Db mice and were immediately treated with 10 µM UCUF-728 or PBS control. We monitored wound healing over the course of 22 days. Initial wound size was calculated immediately after wounding, and wound closure was assessed over time as the percentage of initial wound area. Figure 4A depicts the wound healing effect of UCUF-728 application on the excision wound model for sequential days following injury. […] The effect of UCUF-728 treatment on angiogenesis was assessed using immunohistochemistry for the endothelial marker CD31. Representative photos of immunoperoxidase staining for CD31 at 7 days in diabetic wounds treated with PBS or UCUF-728 are shown in Figure 4C.
All animal experiments were approved by the Institutional Animal Care and Use Committee at the University of Colorado Denver—Anschutz Medical Campus, and experimental protocols followed the guidelines described in the NIH Guide for the Care and Use of Laboratory Animals. In these experiments, we used 10-week-old, female, genetically diabetic C57BKS.Cg-m/Leprdb/J (Db) mice and heterozygous, non-diabetic (non-Db), age-matched female controls from the Jackson Laboratory (Bar Harbor, ME, USA). Mice were anesthetized with inhaled isoflurane. Each mouse was shaved and depilated before wounding. The dorsal skin was swabbed with alcohol and Betadine (Purdue Pharma, Stamford, CT, USA). Each mouse received a single, full-thickness dorsal wound (including panniculus carnosum) with an 8-mm punch biopsy (Miltex Inc., York, PA, USA). After wounding, a Hamilton syringe was used to deliver 50 μL of either 10 uM CAG1 or PBS, as a control. Ten […] were injected intradermally at 12, 3, 6 and 9 o’clock and at the wound base. All wounds were dressed with Tegaderm (3M, St. Paul, MN, USA), which was subsequently removed on postoperative day 2. Postoperatively, the mice received a subcutaneous injection of an analgesic, Banamine (Schering-Plough Animal Health Corp., Union, NJ, USA). A full-thickness skin sample, centered on the wound, was harvested 3 and 7 days after surgery (n = 5 per timepoint).

[3] = target: CXCR4 receptor (Homo sapiens, UniProt P61073); assay: primary 1536 w β-arrestin recruitment assay (CXCR4-bla U2OS cells, SDF-1α from R&D systems); type: cell-based; design: host or cells: Tango CXCR4-bla U2OS cells
Sequence of CXCR4 receptor (P61073 whole entry): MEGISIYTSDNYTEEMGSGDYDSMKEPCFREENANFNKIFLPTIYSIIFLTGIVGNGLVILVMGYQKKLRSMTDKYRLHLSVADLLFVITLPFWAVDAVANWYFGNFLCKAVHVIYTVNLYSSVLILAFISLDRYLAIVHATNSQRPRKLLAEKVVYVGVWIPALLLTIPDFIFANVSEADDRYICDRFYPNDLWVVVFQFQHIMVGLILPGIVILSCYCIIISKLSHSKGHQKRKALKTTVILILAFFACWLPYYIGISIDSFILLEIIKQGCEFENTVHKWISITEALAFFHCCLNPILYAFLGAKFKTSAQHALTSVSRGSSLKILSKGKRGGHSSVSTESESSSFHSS
Procedure: In our effort to identify CXCR4 activators from the NIH Molecular Library Small Molecule Repository (MLSMR), we developed a primary screening assay to measure β-arrestin recruitment to the activated G-protein coupled receptor (GPCR) by a Florescence Resonance Energy Transfer (FRET) in U2OS cells, overexpressing the CXCR4 receptor engineered with a β-lactamase (bla) reporter system. CXCR4-bla cells plated in 1536 w were stimulated in the presence of 10 µM compound concentration. […] Using this approach, we successfully screened the NIH MLSMR of 370,620 compounds (Figure 1A,B) and identified 303 hits (hit rate = 0.08%). […] These compounds were graded according to activity and structure, resulting in 86 compounds that met the criteria as potential CXCR4 agonists for further characterization (Figure 1B). The workflow for high-throughput screening and this study is illustrated in Figure 1B.
Chemical stability, synthetic tractability, solubility and complete dose response and potency criteria led to the prioritization of the 5-aryl-2-cyclopropyl oxazole scaffold, represented by primary hit Compound 2 (Table 1). The early structure–activity relationship was established around the 5-aryl-2-cyclopropyl oxazole core with commercially available analogs with diverse substituents in the sulfonanilide ring of the scaffold. […] Keeping the 2-OMe substituent constant, we screened a small set of electron withdrawing and electron rich substituents at the 5-position of the anilide ring (entries 16–19). […] The analytical data for UCUF-728 is shown in Supplemental Figures S1–S4.

EC50 [3]: 1.1 µM
Emax ([3]; U2OS): 60%
Structure (SMILES): COc1ccc(OC)c(NS(=O)(=O)c2ccc(-c3cnc(C4CC4)o3)cc2)c1 [Compound 19]
miR-29a expression [1]: significant decrease in the miR-29a expression level
time of full closure ([2]; Db mice, 8 mm wound, 10 µM intradermal at wounding, PBS 22 days): 14 days
wound surface area ([2]; Db wounds, post-injury day 6, vs PBS): decrease in the wound surface area
reduction of wound closure time ([2]; diabetic mice, vs PBS): 36%
number of vessels (CD31 staining) ([2]; diabetic wounds, 7 days, vs PBS): significant increase in the number of vessels
